The nature of the data set: method code SF-AS, from PMID: 9631499.
A word on the logP: it is a log measure of how a compound divides between an organic and an aqueous phase. As to `Cc1ccc(-c2nnc(CCON=Cc3ccc(Cl)cc3)o2)cc1`, the logP turned out to be 3.57.

`Clc1ccc(C=NOCCc2nnc(-c3ccccc3)[nH]2)cc1` registered a log partition coefficient (logP) of 2.83.

For `Cc1ccc(-c2nnc(CCON=Cc3ccc(Cl)cc3Cl)o2)cc1`, the log partition coefficient (logP) worked out at 4.28.

As to `Cc1cccc(-c2nnc(CCON=Cc3ccc(Cl)cc3Cl)o2)c1`, the logP came to 4.28.

For `Cc1ccc(-c2nnc(CCON=Cc3ccc(Cl)cc3)[nH]2)cc1`, the logP came to 3.39.

`Cc1cccc(-c2nnc(CCON=Cc3ccc(Cl)cc3Cl)[nH]2)c1`: the logP was 4.1.

For the compound `Clc1ccc(C=NOCCc2nnc(-c3ccccc3)o2)c(Cl)c1`, the lipophilicity (logP) was 3.72.

In turn, `Cc1ccc(-c2nnc(CCON=Cc3ccc(Cl)cc3Cl)[nH]2)cc1` yielded a logP of 4.1.

Consider `Clc1ccc(C=NOCCc2nnc(-c3ccccc3)o2)cc1`, for which the logP came out at 3.01.

In the case of `Cc1cccc(-c2nnc(CCON=Cc3ccc(Cl)cc3)[nH]2)c1`, the logP was found to be 3.39.

As for `Cc1ccc(C=NOCCc2nnc(-c3cccc(C)c3)o2)cc1`, the logP was determined as 3.57.

The record behind these values is the SangsterLogP compilation.
